# Reference: patent publication US20080234262A1 (Wyeth, priority 2007, published 2008)
# Like-named read-outs stand apart in the source and are kept apart here.
# Legend:
# Human mTOR (FLAG-TOR) = target: T1, Human mTOR (FLAG-TOR) (Homo sapiens, UniProt P42345); assay: Human mTOR kinase assay with purified enzyme, DELFIA format; format: biochemical
# T1 construct: FLAG
# PI3K = PI3K (Homo sapiens, UniProt P42336); assay: Fluorescence polarization assay for PI3K; format: biochemical; conditions: PI3Kα, read-out: PI3Kα IC50;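 also: PI3K kinase reaction on PIP2 with ATP, 30-60 min, product sensed by GST-GRP with red probe in fluorescence polarization (mP), controls without enzyme and at zero time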
# prostate line LNCap = assay: In vitro cell culture growth assay (MTS), LNCap; format: cell-based, human; conditions: LNCap cells, three days after drug treatment;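 also: viable cell density read by absorbance at 490 nm, growth expressed as percent of vehicle-treated cells on the same plate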
# breast line MDA468 = assay: In vitro cell culture growth assay (MTS), MDA468; format: cell-based, human; conditions: MDA468 cells, three days after drug treatment
# How it was run: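 Steps: plate cells; add inhibitors the next day; incubate 3 days; add MTS dye, which viable cells convert metabolically; measure absorbance at 490 nm; calculate percent of control growth relative to vehicle-treated cells in the same plate.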
# PI3K, sequence (P42336 whole entry): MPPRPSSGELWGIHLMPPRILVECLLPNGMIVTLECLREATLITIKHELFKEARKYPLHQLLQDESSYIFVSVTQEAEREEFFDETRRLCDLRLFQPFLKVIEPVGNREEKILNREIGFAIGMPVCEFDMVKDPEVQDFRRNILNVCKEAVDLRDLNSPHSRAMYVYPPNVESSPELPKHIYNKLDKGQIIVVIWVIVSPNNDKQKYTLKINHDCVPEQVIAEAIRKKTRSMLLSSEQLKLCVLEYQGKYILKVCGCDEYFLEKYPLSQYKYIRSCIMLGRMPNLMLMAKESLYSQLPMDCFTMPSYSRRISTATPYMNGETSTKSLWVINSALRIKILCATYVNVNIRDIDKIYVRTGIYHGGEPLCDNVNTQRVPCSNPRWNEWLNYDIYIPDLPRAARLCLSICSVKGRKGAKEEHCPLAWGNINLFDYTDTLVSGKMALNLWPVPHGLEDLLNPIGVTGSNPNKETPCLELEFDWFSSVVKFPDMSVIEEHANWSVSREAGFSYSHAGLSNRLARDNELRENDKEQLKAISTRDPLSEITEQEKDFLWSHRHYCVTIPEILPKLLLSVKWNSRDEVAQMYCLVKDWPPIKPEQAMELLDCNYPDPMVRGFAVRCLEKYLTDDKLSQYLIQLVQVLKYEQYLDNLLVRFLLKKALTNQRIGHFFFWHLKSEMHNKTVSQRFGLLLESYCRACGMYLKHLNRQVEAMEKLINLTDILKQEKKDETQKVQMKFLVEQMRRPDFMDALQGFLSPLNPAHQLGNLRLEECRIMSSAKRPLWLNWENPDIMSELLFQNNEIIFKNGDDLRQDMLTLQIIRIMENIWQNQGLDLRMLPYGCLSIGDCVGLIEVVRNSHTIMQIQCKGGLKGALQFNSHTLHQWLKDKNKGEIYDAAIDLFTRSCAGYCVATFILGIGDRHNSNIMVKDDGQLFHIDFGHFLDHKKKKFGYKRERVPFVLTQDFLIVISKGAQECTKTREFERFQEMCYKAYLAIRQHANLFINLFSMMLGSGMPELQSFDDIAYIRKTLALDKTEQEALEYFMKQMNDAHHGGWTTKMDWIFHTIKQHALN
# PI3K, sequence (P27986 whole entry partner): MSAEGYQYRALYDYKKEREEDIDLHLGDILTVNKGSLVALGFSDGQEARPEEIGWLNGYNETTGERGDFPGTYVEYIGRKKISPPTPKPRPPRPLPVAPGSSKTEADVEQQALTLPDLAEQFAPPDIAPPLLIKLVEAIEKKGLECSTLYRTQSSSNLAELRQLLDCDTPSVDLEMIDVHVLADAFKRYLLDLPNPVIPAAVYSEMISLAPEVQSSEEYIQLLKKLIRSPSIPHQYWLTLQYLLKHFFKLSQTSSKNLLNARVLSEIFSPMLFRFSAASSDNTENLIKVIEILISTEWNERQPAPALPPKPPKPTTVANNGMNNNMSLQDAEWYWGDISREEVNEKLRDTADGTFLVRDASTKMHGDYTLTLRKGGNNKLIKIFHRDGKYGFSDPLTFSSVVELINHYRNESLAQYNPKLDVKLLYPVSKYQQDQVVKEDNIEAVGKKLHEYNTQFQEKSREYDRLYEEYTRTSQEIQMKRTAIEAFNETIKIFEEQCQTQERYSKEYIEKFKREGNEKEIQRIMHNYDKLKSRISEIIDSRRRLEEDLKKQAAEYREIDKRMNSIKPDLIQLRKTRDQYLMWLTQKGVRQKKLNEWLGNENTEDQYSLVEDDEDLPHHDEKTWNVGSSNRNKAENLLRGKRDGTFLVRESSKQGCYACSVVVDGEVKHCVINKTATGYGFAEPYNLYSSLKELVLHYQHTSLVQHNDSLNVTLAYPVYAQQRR
Compound,IC50 (PI3K) [nM],IC50 (PI3K; listed as 74) [nM],"IC50 (prostate line LNCap; Homo sapiens, LNCaP, 72 h) [nM]",IC50 (Human mTOR (FLAG-TOR)) [nM],"IC50 (breast line MDA468; Homo sapiens, 72 h) [nM]",IC50 (prostate line LNCap) [nM],IC50 (breast line MDA468) [nM]
"1-(2-Fluoro-ethyl)-3-(4-{1-[1-(4-hydroxy-butyl)-piperidin-4-yl]-4-morpholin-4-yl-1H-pyrazolo[3,4-d]pyrimidin-6-yl}-phenyl)-urea [Example 54]",1750,,,29,,,
"1-(4-{4-(2-hydroxymorpholin-4-yl)-1-[1-(pyridin-3-ylmethyl)piperidin-4-yl]-1H-pyrazolo[3,4-d]pyrimidin-6-yl}phenyl)-3-methylurea [Example 61]",9130,,,300,,,
"1-Ethyl-3-(4-{1-[1-(4-hydroxy-butyl)-piperidin-4-yl]-4-morpholin-4-yl-1H-pyrazolo[3,4-d]pyrimidin-6-yl}-phenyl)-urea [Example 52]",1430,,,11.5,,,
"1-{4-[1-(1-Benzyl-piperidin-4-yl)-4-morpholin-4-yl-1H-pyrazolo[3,4-d]pyrimidin-6-yl]-phenyl}-3-methyl-thiourea [Example 34]",1110,,,1200,,,
"3-(4-Morpholin-4-yl-1-piperidin-4-yl-1H-pyrazolo[3,4-d]pyrimidin-6-yl)-phenol [Example 5]",440,,,240,,,
"3-[4-(1,4-oxazepan-4-yl)-1-phenyl-1H-pyrazolo[3,4-d ]pyrimidin-6-yl]phenol [Example 75]",10000,,,≥ 20000,,,
"4-(4-morpholin-4-yl-1-phenyl-1H-pyrazolo[3,4-d]pyrimidin-6-yl)aniline [Example 10]",,,,215,,,
"4-(6-(3-hydroxyphenyl)-1-phenyl-1H-pyrazolo[3,4-d]pyrimidin-4-yl)morpholin-3-one [Example 73]",8770,8570,,380,,,
"COC(=O)Nc1ccc(-c2nc(N3CCOCC3)c3cnn(C4CCN(C(=O)c5ccccn5)CC4)c3n2)cc1 [Example 441, methyl (4-{4-morpholin-4-yl-1-[1-(pyridin-2-ylcarbonyl)piperidin-4-yl]-1H-pyrazolo[3,4-d]pyrimidin-6-yl}phenyl)carbamate]",1920,,200,,600,,
"COC(=O)Nc1ccc(-c2nc(N3CCOCC3)c3cnn(C4CCN(C(=O)c5ccccc5)CC4)c3n2)cc1 [Example 442, methyl {4-[1-(1-benzoylpiperidin-4-yl)-4-morpholin-4-yl-1H-pyrazolo[3,4-d]pyrimidin-6-yl]phenyl}carbamate]",1010,,150,,500,,
"COC(=O)Nc1ccc(-c2nc(N3CCOCC3)c3cnn(C4CCN(C(=O)c5ccccc5F)CC4)c3n2)cc1 [Example 443, methyl (4-{1-[1-(2-fluorobenzoyl)piperidin-4-yl]-4-morpholin-4-yl-1H-pyrazolo[3,4-d]pyrimidin-6-yl}phenyl)carbamate]",1140,,250,,500,,
"COC(=O)Nc1ccc(-c2nc(N3CCOCC3)c3cnn(C4CCN(C(=O)c5ccccc5Cl)CC4)c3n2)cc1 [Example 444, methyl (4-{1-[1-(2-chlorobenzoyl)piperidin-4-yl]-4-morpholin-4-yl-1H-pyrazolo[3,4-d]pyrimidin-6-yl}phenyl)carbamate]",778,,250,,800,,
"COC(=O)Nc1ccc(-c2nc(N3CCOCC3)c3cnn(C4CCN(C(=O)c5ccc(F)cc5)CC4)c3n2)cc1 [Example 445, methyl (4-{1-[1-(4-fluorobenzoyl)piperidin-4-yl]-4-morpholin-4-yl-1H-pyrazolo[3,4-d]pyrimidin-6-yl}phenyl)carbamate]",989,,580,,1600,,
"COC(=O)Nc1ccc(-c2nc(N3CCOCC3)c3cnn(C4CCN(C(=O)c5ccccc5OC)CC4)c3n2)cc1 [Example 446, methyl (4-{1-[1-(2-methoxybenzoyl)piperidin-4-yl]-4-morpholin-4-yl-1H-pyrazolo[3,4-d]pyrimidin-6-yl}phenyl)carbamate]",888,,350,,900,,
"COC(=O)Nc1ccc(-c2nc(N3CCOCC3)c3cnn(C4CCN(C(=O)c5ccc(F)cc5F)CC4)c3n2)cc1 [Example 449, methyl (4-{1-[1-(2,4-difluorobenzoyl)piperidin-4-yl]-4-morpholin-4-yl-1H-pyrazolo[3,4-d]pyrimidin-6-yl}phenyl)carbamate]",800,,500,,1200,,
"COC(=O)Nc1ccc(-c2nc(N3CCOCC3)c3cnn(C4CCN(Cc5ccc(Cl)nc5)CC4)c3n2)cc1 [Example 454, methyl [4-(1-{1-[(6-chloropyridin-3-yl)methyl]piperidin-4-yl}-4-morpholin-4-yl-1H-pyrazolo[3,4-d]pyrimidin-6-yl)phenyl]carbamate]",619,,740,,2000,,
"methyl [4-(1-{1-[(6-fluoropyridin-3-yl)methyl]piperidin-4-yl}-4-morpholin-4-yl-1H-pyrazolo[3,4-d]pyrimidin-6-yl) phenyl]carbamate [Compound 453]",1200,,,,,900,6000
"methyl [4-(1-{1-[(6-fluoropyridin-3-yl)methyl]piperidin-4-yl}-4-morpholin-4-yl-1H-pyrazolo[3,4-d]pyrimidin-6-yl)phenyl]carbamate [Compound 697]",1200,,,,,900,6000

# More lines, main results first:
IC50 (PI3K) [nM],IC50 (PI3K; listed as 74) [nM],"IC50 (prostate line LNCap; Homo sapiens, LNCaP, 72 h) [nM]",Compound,IC50 (Human mTOR (FLAG-TOR)) [nM],"IC50 (breast line MDA468; Homo sapiens, 72 h) [nM]",IC50 (prostate line LNCap) [nM],IC50 (breast line MDA468) [nM]
1620,,900,"CCNC(=O)Nc1ccc(-c2nc(N3CCOCC3)c3cnn(C4CCN(C(=O)c5cccnc5)CC4)c3n2)c(F)c1 [Example 462, 1-ethyl-3-(3-fluoro-4-{4-morpholin-4-yl-1-[1-(pyridin-3-ylcarbonyl)piperidin-4-yl]-1H-pyrazolo[3,4-d]pyrimidin-6-yl}phenyl)urea]",,900,,
1730,,1200,"O=C(NCCF)Nc1ccc(-c2nc(N3CCOCC3)c3cnn(C4CCN(C(=O)c5cccnc5)CC4)c3n2)c(F)c1 [Example 463, 1-(2-fluoroethyl)-3-(3-fluoro-4-{4-morpholin-4-yl-1-[1-(pyridin-3-ylcarbonyl)piperidin-4-yl]-1H-pyrazolo[3,4-d]pyrimidin-6-yl}phenyl)urea]",,1200,,
3110,,1050,"CCNC(=O)Nc1cc(F)c(-c2nc(N3CCOCC3)c3cnn(C4CCN(C(=O)c5cccnc5)CC4)c3n2)cc1F [Example 466, 1-(2,5-difluoro-4-{4-morpholin-4-yl-1-[1-(pyridin-3-ylcarbonyl)piperidin-4-yl]-1H-pyrazolo[3,4-d]pyrimidin-6-yl}phenyl)-3-ethylurea]",,3300,,
2980,,1200,"O=C(NCCF)Nc1cc(F)c(-c2nc(N3CCOCC3)c3cnn(C4CCN(C(=O)c5cccnc5)CC4)c3n2)cc1F [Example 467, 1-(2,5-difluoro-4-{4-morpholin-4-yl-1-[1-(pyridin-3-ylcarbonyl)piperidin-4-yl]-1H-pyrazolo[3,4-d]pyrimidin-6-yl}phenyl)-3-(2-fluoroethyl)urea]",,2200,,
173,,170,"O=C(Nc1ccccc1)Nc1cc(F)c(-c2nc(N3CCOCC3)c3cnn(C4CCN(C(=O)c5cccnc5)CC4)c3n2)cc1F [Example 469, 1-(2,5-difluoro-4-{4-morpholin-4-yl-1-[1-(pyridin-3-ylcarbonyl)piperidin-4-yl]-1H-pyrazolo[3,4-d]pyrimidin-6-yl}phenyl)-3-phenylurea]",,600,,
187,,56,"CNC(=O)Nc1ccc(-c2nc(N3CCOCC3)c3cnn(C4CCN(CC(F)(F)F)CC4)c3n2)cc1 [Example 470, 1-methyl-3-(4-{4-morpholin-4-yl-1-[1-(2,2,2-trifluoroethyl)piperidin-4-yl]-1H-pyrazolo[3,4-d]pyrimidin-6-yl}phenyl)urea]",,300,,
225,,800,"CNC(=O)Nc1ccc(-c2nc(N3CCOCC3)c3cnn(C4CCN(C(C)=O)CC4)c3n2)cc1 [Example 472, 1-{4-[1-(1-acetylpiperidin-4-yl)-4-morpholin-4-yl-1H-pyrazolo[3,4-d]pyrimidin-6-yl]phenyl}-3-methylurea]",,1200,,
209,,200,"CNC(=O)Nc1ccc(-c2nc(N3CCOCC3)c3cnn(C4CCN(C(=O)N(C)C)CC4)c3n2)cc1 [Example 473, N,N-dimethyl-4-(6-{4-[(methylcarbamoyl)amino]phenyl}-4-morpholin-4-yl-1H-pyrazolo[3,4-d]pyrimidin-1-yl)piperidine-1-carboxamide]",,500,,
287,,1010,"CNC(=O)Nc1ccc(-c2nc(N3CCOCC3)c3cnn(C4CCN(C(=O)COC)CC4)c3n2)cc1 [Example 474, 1-(4-{1-[1-(methoxyacetyl)piperidin-4-yl]-4-morpholin-4-yl-1H-pyrazolo[3,4-d]pyrimidin-6-yl}phenyl)-3-methylurea]",,1400,,
148,,150,"CNC(=O)Nc1ccc(-c2nc(N3CCOCC3)c3cnn(C4CCN(C(=O)C(C)C)CC4)c3n2)cc1 [Example 475, 1-{4-[1-(1-isobutyrylpiperidin-4-yl)-4-morpholin-4-yl-1H-pyrazolo[3,4-d]pyrimidin-6-yl]phenyl}-3-methylurea]",,300,,
149,,2200,"CNC(=O)Nc1ccc(-c2nc(N3CCOCC3)c3cnn(C4CCN(C(=O)NC)CC4)c3n2)cc1 [Example 477, N-methyl-4-(6-{4-[(methylcarbamoyl)amino]phenyl}-4-morpholin-4-yl-1H-pyrazolo[3,4-d]pyrimidin-1-yl)piperidine-1-carboxamide]",,1800,,
